This passage reports IC90 results from patent publication US20230012368A1 (Hoffmann-La Roche Inc., priority 2018, published 2023).

SMILES strings stand for the structures. Counter-ions that a name gives are not always drawn.

For orientation: IC90 means the point of the concentration-response curve where the effect stands at 90%.

The first assay relates to Acinetobacter baumannii ATCC 17978. As to the kind of experiment: Antimicrobial susceptibility testing: 90% growth inhibitory concentration (IC90) determination. It is filed as cell-based. The conditions noted are these: 90% growth inhibitory concentration; Acinetobacter baumannii ATCC17978; Iso-Sensitest broth, OD 600 nm over 16h; read-out: ATCC17978 IC90. The gist of the method: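 Compounds serially twofold diluted (e.g. 50 to 0.097 μM final) in Iso-Sensitest broth, inoculated at ~5×10^(5) CFU/ml, incubated at 35±2° C. OD600 read every 20 minutes over 16h. IC90 taken as concentration inhibiting 90% of growth during logarithmic phase.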
Regarding `CCc1cc(Nc2nccn3c(-c4ccc(OC)c(F)c4F)cnc23)ccc1C(=O)NCCCNC(=O)[C@@H](N)CCCNC(=N)N` [Example 343, N-[3-[[(2S)-2-amino-5-carbamimidamidopentanoyl]amino]propyl]-4-[[3-(2,3-difluoro-4-methoxyphenyl)imidazo[1,2-a]pyrazin-8-yl]amino]-2-ethylbenzamide;2,2,2-trifluoroacetic acid], the concentration for an effect of 90% (IC90) was 0.75 µM.

Staying with this assay, now noted: Acinetobacter baumannii, ATCC17978, 16 h, 90% growth inhibitory concentration; Acinetobacter baumannii ATCC17978; Iso-Sensitest broth, OD 600 nm over 16h; read-out: ATCC17978 IC90.
Turning to `CCc1cc(Nc2nccn3c(-c4ccc(OC)c(F)c4F)cnc23)ccc1C(=O)N[C@H](C)CNC(=O)[C@@H](N)CCCNC(=N)N` [Example 331, N-[(2R)-1-[[(2S)-2-amino-5-carbamimidamidopentanoyl]amino]propan-2-yl]-4-[[3-(2,3-difluoro-4-methoxyphenyl)imidazo[1,2-a]pyrazin-8-yl]amino]-2-ethylbenzamide;formic acid], the IC90 is 0.3 µM. The same measure, in the same setting: the result for `CCc1cc(Nc2nccn3c(-c4ccc(OC)c(F)c4F)cnc23)ccc1C(=O)NCCNC(=O)[C@@H](N)CCCNC(N)=O` [Example 332, N-[2-[[(2S)-2-amino-5-(carbamoylamino)pentanoyl]amino]ethyl]-4-[[3-(2,3-difluoro-4-methoxyphenyl)imidazo[1,2-a]pyrazin-8-yl]amino]-2-ethylbenzamide] reads 0.32 µM; that for `CCc1cc(Nc2nccn3c(-c4ccc(OC(F)F)c(F)c4F)cnc23)ccc1C(=O)NCCNC(=O)[C@@H](N)CCCNC(=N)N` [Example 333, N-[2-[[(2S)-2-amino-5-carbamimidamidopentanoyl]amino]ethyl]-4-[[3-[4-(difluoromethoxy)-2,3-difluorophenyl]imidazo[1,2-a]pyrazin-8-yl]amino]-2-ethylbenzamide;formic acid], 0.34 µM; that for `CCc1cc(Nc2nccn3c(-c4ccc(OC)c(F)c4F)cnc23)ccc1C(=O)NCC(O)CN` (stereo not drawn) [Example 334, N-(3-amino-2-hydroxypropyl)-4-[[3-(2,3-difluoro-4-methoxyphenyl)imidazo[1,2-a]pyrazin-8-yl]amino]-2-ethylbenzamide], 0.35 µM.

Turning to `CCc1cc(Nc2nccn3c(-c4ccc(OC)c(F)c4F)cnc23)ccc1C(=O)NCCNC(=O)NCCCN` [Example 335, N-[2-(3-aminopropylcarbamoylamino)ethyl]-4-[[3-(2,3-difluoro-4-methoxyphenyl)imidazo[1,2-a]pyrazin-8-yl]amino]-2-ethylbenzamide], the IC90 is 0.43 µM. On the same count and under the same terms, the result for `CCc1cc(Nc2nccn3c(-c4ccc(OC)c(F)c4F)cnc23)ccc1C(=O)NCC[C@H](C)NC(=O)[C@@H](N)CCCNC(=N)N` [Example 336, N-[(3S)-3-[[(2S)-2-amino-5-carbamimidamidopentanoyl]amino]butyl]-4-[[3-(2,3-difluoro-4-methoxyphenyl)imidazo[1,2-a]pyrazin-8-yl]amino]-2-ethylbenzamide; hydrochloride] reads 0.48 µM; that for `COc1ccc(-c2cnc3c(Nc4ccc(C(=O)NCCNC(=O)CC[C@@H]5NC5=O)c(C)c4)nccn23)c(F)c1F` [Example 337, 4-[[3-(2,3-difluoro-4-methoxyphenyl)imidazo[1,2-a]pyrazin-8-yl]amino]-2-methyl-N-[2-[3-[(2S)-3-oxoaziridin-2-yl]propanoylamino]ethyl]benz-amide], 0.52 µM; that for `COc1ccc(-c2cnc3c(Nc4ccc(C(=O)NCCNC(=O)CC[C@H]5C(=O)N5C)c(C)c4)nccn23)c(F)c1F` [Example 338, 4-[[3-(2,3-difluoro-4-methoxyphenyl)imidazo[1,2-a]pyrazin-8-yl]amino]-2-methyl-N-[2-[3-[(2S)-1-methyl-3-oxoaziridin-2-yl]propanoylamino]ethyl]benz-amide], 0.54 µM.

As to `CCc1cc(Nc2nccn3c(-c4ccc(OC)c(F)c4F)cnc23)ccc1C(=O)NCCNC(=O)NCCN` [Example 339, N-[2-(2-aminoethylcarbamoylamino)ethyl]-4-[[3-(2,3-difluoro-4-methoxyphenyl)imidazo[1,2-a]pyrazin-8-yl]amino]-2-ethylbenzamide], the concentration for an effect of 90% (IC90) stood at 0.56 µM. The same measure, in the same setting: next, `CCc1cc(Nc2nccn3c(-c4ccc(OC)c(F)c4F)cnc23)ccc1C(=O)NCC[C@@H](C)NC(=O)[C@@H](N)CCCNC(=N)N` [Example 340, N-[(3R)-3-[[(2S)-2-amino-5-carbamimidamidopentanoyl]amino]butyl]-4-[[3-(2,3-difluoro-4-methoxyphenyl)imidazo[1,2-a]pyrazin-8-yl]amino]-2-ethylbenzamide; hydrochloride]: 0.59 µM; `CCc1cc(Nc2nccn3c(-c4ccc(Cl)c(F)c4F)cnc23)ccc1C(=O)NCCNC(=O)[C@@H](N)CCCNC(=N)N` [Example 341, N-[2-[[(2S)-2-amino-5-carbamimidamidopentanoyl]amino]ethyl]-4-[[3-(4-chloro-2,3-difluorophenyl)imidazo[1,2-a]pyrazin-8-yl]amino]-2-ethylbenzamide]: 0.65 µM; `CCc1cc(Nc2nccn3c(-c4ccc(OC)c(F)c4F)cnc23)ccc1C(=O)N[C@@H](C)CNC(=O)[C@@H](N)CCCNC(=N)N` [Example 342, N-[(2S)-1-[[(2S)-2-amino-5-carbamimidamidopentanoyl]amino]propan-2-yl]-4-[[3-(2,3-difluoro-4-methoxyphenyl)imidazo[1,2-a]pyrazin-8-yl]amino]-2-ethylbenzamide; formic acid]: 0.73 µM.

In the case of `CCc1cc(Nc2nccn3c(-c4ccc(OC)c(F)c4F)cnc23)ccc1C(=O)NCCCC[C@H](N)C(=O)O` [Example 344, (2S)-2-amino-6-[[4-[[3-(2,3-difluoro-4-methoxyphenyl)imidazo[1,2-a]pyrazin-8-yl]amino]-2-ethylbenzoyl]amino]hexanoic acid;2,2,2-trifluoroacetic acid], the IC90 was 0.8 µM. As for `Cc1cc(Nc2nccn3c(-c4ccc(OC(F)F)cc4)cnc23)ccc1C(=O)NCCNC(=O)N1CCNCC1` [Example 345, N-[2-[[4-[[3-[4-(difluoromethoxy)phenyl]im-idazo[1,2-a]pyrazin-8-yl]amino]-2-methylbenzoyl]amino]ethyl] piperazine-1-carboxamide], the IC90 came out at 0.9 µM. Still for that read-out and setting: next, `CCc1cc(Nc2nccn3c(-c4ccc(Cl)cc4Cl)cnc23)ccc1C(=O)NCCNC(=O)[C@@H](N)CCCNC(=N)N` [Example 346, N-[2-[[(2S)-2-amino-5-carbamimidamidopentanoyl]amino]ethyl]-4-[[3-(2,4-dichlorophenyl)imidazo[1,2-a]pyrazin-8-yl]amino]-2-ethylbenzamide;hydrochloride]: 0.98 µM. On the same count and under the same terms, next, `CCc1cc(Nc2nccn3c(-c4ccc(OC)c(F)c4F)cnc23)ccc1C(=O)NCCN1CCC[C@H](N)C1=O` [Example 347, N-[2-[(3S)-3-amino-2-oxopiperidin-1-yl]ethyl]-4-[[3-(2,3-difluoro-4-methoxyphenyl)imidazo[1,2-a]pyrazin-8-yl]amino]-2-ethylbenzamide]: 1.1 µM; `COc1ccc(-c2cnc3c(Nc4ccc(C(=O)NCCNC(=O)N5CCN[C@H](C(=O)O)C5)c(C)c4)nccn23)c(F)c1F` [Example 348, (2S)-4-[2-[[4-[[3-(2,3-difluoro-4-methoxyphenyl)imidazo[1,2-a]pyrazin-8-yl]amino]-2-methylbenzoyl]amino]ethyl-carbamoyl]piperazine-2-carboxylic acid;formic acid]: 1.1 µM.
